According to patent publication US20130324541A1, “POTENTIATOR OF ANTITUMOR ACTIVITY OF CHEMOTHERAPEUTIC AGENT” (Ajinomoto Co., Inc., priority 2011, published 2013):

Tests used:
[1] = system: human hepatic cancer cell line HAK4; test: Annexin V apoptosis, combined use of 5FU and BCAA, HAK4 cells; assay type: cell-based; conditions: 72 hr, BCAA 2 mM, 5FU 2.5 μg/ml
Protocol: Human hepatic cancer cell line HAK4 cells were plated at a concentration of 3000 cells/well in a plate, and cultured 30 under the following conditions for 72 hr: • LC 2.5% medium • BCAA (2 mM) • 5FU (2.5 μg/ml) • BCAA (2 mM)+5FU (2.5 μg/ml)
(§1) After 72 hr, using ApoAlert Annexin V-FITC Apoptosis kit (Clontech), the cells were stained with annexin V and fixed, and apoptotic cells (%) were detected by Array Scan (Thermo Fisher).
To be specific, the cells in the 96 well plate were rinsed with 1×Binding Buffer, 40 μl of 1×Binding Buffer containing annexin V (1 μl) was added to each well, and the cells were incubated in the dark at room temperature for 5-15 min. The cells were washed, and fixed with 2% formaldehyde. 100 μl of PBS containing Hoechst33258 solution was added, and the cells were incubated in the dark for 5 min, and apoptotic cells (%) were detected by Array Scan.

HAK1B cells = test: HAK1B subcutaneous transplant in nude mice, tumor weight and volume; assay type: in vivo, BALB/c nude mice; conditions: 5FU 250 μg/tumor into the tumor, 3(w/w)% BCAA mixed feed for 2 weeks, vs control group
Protocol: HAK1B cells were subcutaneously transplanted to 7-week-old female BALB/c nude mice (purchased from Japan Charles River) at 7,000,000 cells/mouse. After 1 week, the mice were grouped based on the tumor area. 5FU 250 μg/tumor (vehicle 10% DMSO/DW) was administered into the tumor (see Cancer Research, 70(11), 4687-4697, 2010), as well as a 3(w/w) % BCAA mixed feed or a 3(w/w) % casein mixed feed was given for 2 weeks. That is, treatments of 4 groups are as described below: • group 1: vehicle+casein mixed feed (control group) • group 2: 5FU+casein mixed feed • group 3: vehicle+BCAA mixed feed • group 4: 5FU+BCAA mixed feed
Using a vernier caliper, the tumor volume (longest Diameter×shortest diameter×height (mm^3)) was measured from the outer side of the tumor to monitor time-course changes in the tumor volume. On day 43, autopsy was performed, and the weight and volume of the tumor were measured.

[2] = system: HCT116 cells (human colorectal cancer cell line); test: Annexin V apoptosis, combined use of 5FU and BCAA, HCT116 cells; assay type: cell-based; conditions: 72 hr, BCAA 2 mM, 5FU 2 μg/ml
Protocol: HCT116 cells (human colorectal cancer cell line) were plated at a concentration of 4000 cells/well in a plate, and cultured under the following conditions for 72 hr: • LC 2.5% medium • BCAA (2 mM) • 5FU (2 μg/ml) • BCAA (2 mM)+5FU (2 μg/ml)
as §1

[3] = system: MKN45 cells (human gastric cancer cell line); test: WST-8 viable cell assay, 5FU and BCAA, MKN45 cells; assay type: cell-based; conditions: 72 hr, BCAA 2 mM or 4 mM, 5FU 0.05-1 μg/ml
Protocol: MKN45 cells (human gastric cancer cell line) were plated in a 96 well plate at a concentration of 4000 cells/100 μl/well, and cultured under the following conditions for 72 hr: • LC medium (10% FBS) • LC medium +BCAA (2 mM or 4 mM) • LC medium +5FU (0.05 μg/ml, 0.1 μg/ml, 0.5 μg/ml or 1 μg/ml) • LC medium +BCAA (2 mM or 4 mM) +5FU (0.05 μg/ml, 0.1 μg/ml, 0.5 μg/ml or 1 μg/ml)
After 72 hr, WST-8 reagent was added (10 μl/well) and, after color development for 1 hr, the absorbance of OD 450 nm was measured. The absorbance of each group was shown by a is relative value provided that the absorbance of a non-stimulation group was assumed to be 1000. WST-8 is reduced by intracellular dehydrogenase to produce water-soluble formazan. By directly measuring the absorbance of formazan at 450 nm, the number of viable cells can be easily measured. The cell number and the amount of produced formazan are in a linear proportional correlation.

[4] = system: human breast cancer cell line MDA-MB231; test: Growth of MDA-MB231 cells (cell number, Hoechst staining); assay type: cell-based; conditions: 5 days, 5-FU 0.25 μg/ml, BCAA 4 mM
Protocol: MDA-MB231 cells were suspended in RPMI-10% (RPMI medium containing 10% FBS), and plated in a plate at 2000 cells/well. The next day, the medium was exchanged to those shown below, and the cells were further cultured for 5 days. • group 1: RPMI-10% • group 2: RPMI-10% containing BCAA (4 mM) • group 3: RPMI-10% containing 5-FU (0.25 μg/m1) • group 4: RPMI-10% containing 5-FU (0.25 μg/ml) +BCAA (4 mM)
After 5 days, cellular nucleus was stained with Hoechst reagent, and the cell number was counted. In groups 1 and 2, cells were stained with anti-CD44 antibody, and the ratio of CD44 positive cells was analyzed by Array Scan using fluorescence microscopic quantification apparatus (Thermo Fisher).

## O=c1[nH]cc(F)c(=O)[nH]1 [5FU, 5-fluorouracil]
[1]
  apoptotic cells (Annexin V positive cells): increased
HAK1B cells
  tumor volume: significantly decreased
  tumor weight: significantly decreased
[2]
  apoptotic cells (Annexin V positive cells): increased
[3]
  number of viable cells (WST-8, OD 450 nm): decreased
[4]
  number of viable cells (cell number): decreased
